From the supplement of paper PMC13207355

Assays:
Conditions in all cases: exposure time: 72 h
E28 [1] = patient-derived glioblastoma stem cells of classical subtype; test: surviving fraction (nuclei count normalised to DMSO); higher = more cells surviving (less toxic)
E34 [2] = patient-derived glioblastoma stem cells of proneural subtype; test: as above
E13 [3] = patient-derived glioblastoma stem cells of classical subtype; test: as above
E21 [4] = patient-derived glioblastoma stem cells of mesenchymal subtype; test: as above
FT3469 [5] = normal neural stem cell line; test: as above
E57 [6] = patient-derived glioblastoma stem cells of mesenchymal subtype; test: as above
E28 [7] = test: phenotypic distance (Euclidean, principal components) from DMSO controls (arbitrary units); higher = stronger morphological change
E34 [8] = test: as above
E13 [9] = test: as above
E21 [10] = test: as above
FT3469 [11] = test: as above
E57 [12] = test: as above
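For phenotypic distance (Euclidean, principal components) from DMSO controls in this document: cell Painting imaging in 384-well plates, CellProfiler features reduced to at least 20 principal components, Euclidean distance versus same-plate DMSO vehicle wells (0.1% v/v), median over six images per well.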
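For surviving fraction (nuclei count normalised to DMSO) in this document: nuclei counted by high-content imaging of Hoechst-stained cells in laminin-coated 384-well plates, relative to 0.1% DMSO vehicle wells, with staurosporine as cell-death control.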

O=C(C1CC1)N1CC[C@@H](Cc2n[nH]c(=O)n2-c2ccc(-c3ccc4occc4c3)cc2)C1
Conditions	phenotypic distance	surviving fraction
E13 [3], 4.1 nM	–	0.7243
E13 [3], 12.3 nM	–	0.771
E13 [3], 37 nM	–	0.726
E13 [3], 111.1 nM	–	0.671
E13 [3], 333.3 nM	–	0.641
E13 [3], 1000 nM	–	0.744
E13 [3], 3000 nM	–	0.66
E13 [9], 4.1 nM	3.07	–
E13 [9], 12.3 nM	3.018	–
E13 [9], 37 nM	3.95	–
E13 [9], 111.1 nM	3.29	–
E13 [9], 333.3 nM	3.49	–
E13 [9], 1000 nM	3.21	–
E13 [9], 3000 nM	2.99	–
E21 [4], 4.1 nM	–	0.835
E21 [4], 12.3 nM	–	0.849
E21 [4], 37 nM	–	0.804
E21 [4], 111.1 nM	–	0.777
E21 [4], 333.3 nM	–	0.749
E21 [4], 1000 nM	–	0.789
E21 [4], 3000 nM	–	0.732
E21 [10], 4.1 nM	2.24	–
E21 [10], 12.3 nM	2.337	–
E21 [10], 37 nM	2.41	–
E21 [10], 111.1 nM	2.65	–
E21 [10], 333.3 nM	2.64	–
E21 [10], 1000 nM	2.59	–
E21 [10], 3000 nM	2.62	–
E28 [1], 4.1 nM	–	0.827
E28 [1], 12.3 nM	–	0.792
E28 [1], 37 nM	–	0.771
E28 [1], 111.1 nM	–	0.752
E28 [1], 333.3 nM	–	0.786
E28 [1], 1000 nM	–	0.662
E28 [1], 3000 nM	–	0.704
E28 [7], 4.1 nM	2.86	–
E28 [7], 12.3 nM	3.11	–
E28 [7], 37 nM	3.37	–
E28 [7], 111.1 nM	3.59	–
E28 [7], 333.3 nM	3.55	–
E28 [7], 1000 nM	3.85	–
E28 [7], 3000 nM	3.76	–
E34 [2], 4.1 nM	–	0.853
E34 [2], 12.3 nM	–	0.872
E34 [2], 37 nM	–	0.906
E34 [2], 111.1 nM	–	0.895
E34 [2], 333.3 nM	–	0.879
E34 [2], 1000 nM	–	0.864
E34 [2], 3000 nM	–	0.811
E34 [8], 4.1 nM	1.76	–
E34 [8], 12.3 nM	2.04	–
E34 [8], 37 nM	2.26	–
E34 [8], 111.1 nM	2.59	–
E34 [8], 333.3 nM	2.265	–
E34 [8], 1000 nM	2.464	–
E34 [8], 3000 nM	2.5	–
E57 [6], 4.1 nM	–	0.616
E57 [6], 12.3 nM	–	0.62
E57 [6], 37 nM	–	0.578
E57 [6], 111.1 nM	–	0.574
E57 [6], 333.3 nM	–	0.526
E57 [6], 1000 nM	–	0.53
E57 [6], 3000 nM	–	0.469
E57 [12], 4.1 nM	3.85	–
E57 [12], 12.3 nM	3.99	–
E57 [12], 37 nM	4.34	–
E57 [12], 111.1 nM	4.35	–
E57 [12], 333.3 nM	4.55	–
E57 [12], 1000 nM	4.45	–
E57 [12], 3000 nM	4.65	–
FT3469 [5], 4.1 nM	–	0.786
FT3469 [5], 12.3 nM	–	0.874
FT3469 [5], 37 nM	–	0.823
FT3469 [5], 111.1 nM	–	0.77
FT3469 [5], 333.3 nM	–	0.783
FT3469 [5], 1000 nM	–	0.769
FT3469 [5], 3000 nM	–	0.666
FT3469 [11], 4.1 nM	2.28	–
FT3469 [11], 12.3 nM	2.24	–
FT3469 [11], 37 nM	2.6	–
FT3469 [11], 111.1 nM	3.07	–
FT3469 [11], 333.3 nM	2.8	–
FT3469 [11], 1000 nM	3.17	–
FT3469 [11], 3000 nM	3.52	–

CN[C@@H](C)C(=O)N[C@H](C(=O)N1CCC[C@H]1C(=O)N[C@H]1c2ccccc2C[C@H]1OCC#CC#CCO[C@@H]1Cc2ccccc2[C@@H]1NC(=O)[C@@H]1CCCN1C(=O)[C@@H](NC(=O)[C@H](C)NC)C1CCCCC1)C1CCCCC1 [AZD5582]
Conditions	phenotypic distance	surviving fraction
E13 [3], 4.1 nM	–	0.897
E13 [3], 12.3 nM	–	0.9073
E13 [3], 37 nM	–	0.764
E13 [3], 111.1 nM	–	0.8218
E13 [3], 333.3 nM	–	0.814
E13 [3], 1000 nM	–	0.789
E13 [3], 3000 nM	–	0.755
E13 [9], 4.1 nM	1.42	–
E13 [9], 12.3 nM	1.1	–
E13 [9], 37 nM	1.5	–
E13 [9], 111.1 nM	1.31	–
E13 [9], 333.3 nM	1.39	–
E13 [9], 1000 nM	1.63	–
E13 [9], 3000 nM	1.79	–
E21 [4], 4.1 nM	–	0.73
E21 [4], 12.3 nM	–	0.739
E21 [4], 37 nM	–	0.742
E21 [4], 111.1 nM	–	0.721
E21 [4], 333.3 nM	–	0.628
E21 [4], 1000 nM	–	0.633
E21 [4], 3000 nM	–	0.5049
E21 [10], 4.1 nM	1.08	–
E21 [10], 12.3 nM	1.03	–
E21 [10], 37 nM	1.42	–
E21 [10], 111.1 nM	1.39	–
E21 [10], 333.3 nM	1.47	–
E21 [10], 1000 nM	1.24	–
E21 [10], 3000 nM	1.92	–
E28 [1], 4.1 nM	–	0.975
E28 [1], 12.3 nM	–	1
E28 [1], 37 nM	–	0.978
E28 [1], 111.1 nM	–	1.01
E28 [1], 333.3 nM	–	1.021
E28 [1], 1000 nM	–	0.944
E28 [1], 3000 nM	–	0.802
E28 [7], 4.1 nM	0.701	–
E28 [7], 12.3 nM	0.512	–
E28 [7], 37 nM	0.645	–
E28 [7], 111.1 nM	0.558	–
E28 [7], 333.3 nM	0.744	–
E28 [7], 1000 nM	0.712	–
E28 [7], 3000 nM	2.48	–
E34 [2], 4.1 nM	–	0.925
E34 [2], 12.3 nM	–	0.838
E34 [2], 37 nM	–	0.855
E34 [2], 111.1 nM	–	0.911
E34 [2], 333.3 nM	–	0.9
E34 [2], 1000 nM	–	0.847
E34 [2], 3000 nM	–	0.764
E34 [8], 4.1 nM	0.7	–
E34 [8], 12.3 nM	0.804	–
E34 [8], 37 nM	0.881	–
E34 [8], 111.1 nM	1.07	–
E34 [8], 333.3 nM	0.735	–
E34 [8], 1000 nM	0.779	–
E34 [8], 3000 nM	1.26	–
E57 [6], 4.1 nM	–	0.95
E57 [6], 12.3 nM	–	0.901
E57 [6], 37 nM	–	0.824
E57 [6], 111.1 nM	–	0.756
E57 [6], 333.3 nM	–	0.756
E57 [6], 1000 nM	–	0.719
E57 [6], 3000 nM	–	0.771
E57 [12], 4.1 nM	0.861	–
E57 [12], 12.3 nM	1.22	–
E57 [12], 37 nM	1.41	–
E57 [12], 111.1 nM	2.04	–
E57 [12], 333.3 nM	2.285	–
E57 [12], 1000 nM	2.41	–
E57 [12], 3000 nM	2.795	–
FT3469 [5], 4.1 nM	–	1.01
FT3469 [5], 12.3 nM	–	0.996
FT3469 [5], 37 nM	–	1.07
FT3469 [5], 111.1 nM	–	1.03
FT3469 [5], 333.3 nM	–	1.09
FT3469 [5], 1000 nM	–	0.918
FT3469 [5], 3000 nM	–	0.951
FT3469 [11], 4.1 nM	0.951	–
FT3469 [11], 12.3 nM	1.11	–
FT3469 [11], 37 nM	1.34	–
FT3469 [11], 111.1 nM	0.955	–
FT3469 [11], 333.3 nM	0.844	–
FT3469 [11], 1000 nM	1.57	–
FT3469 [11], 3000 nM	1.61	–

CN1C(=O)[C@@]23C[C@]4([C@]56C[C@@]78SS[C@@](CO)(C(=O)N7[C@H]5Nc5ccccc56)N(C)C8=O)c5ccccc5N[C@@H]4N2C(=O)[C@]1(CO)SS3 [Chaetocin]
Conditions	phenotypic distance	surviving fraction
E13 [3], 4.1 nM	–	0.552
E13 [3], 12.3 nM	–	0.4
E13 [3], 37 nM	–	0.0566
E13 [3], 111.1 nM	–	0.0323
E13 [3], 333.3 nM	–	0.00998
E13 [3], 1000 nM	–	0.0119
E13 [3], 3000 nM	–	0.0124
E13 [9], 4.1 nM	2.76	–
E13 [9], 12.3 nM	3.18	–
E13 [9], 37 nM	5.87	–
E13 [9], 111.1 nM	7.1	–
E13 [9], 333.3 nM	10.5	–
E13 [9], 1000 nM	9.83	–
E13 [9], 3000 nM	10.7	–
E21 [4], 4.1 nM	–	0.253
E21 [4], 12.3 nM	–	0.0911
E21 [4], 37 nM	–	0.0242
E21 [4], 111.1 nM	–	0.00808
E21 [4], 333.3 nM	–	0.00862
E21 [4], 1000 nM	–	0.0113
E21 [4], 3000 nM	–	0.00808
E21 [10], 4.1 nM	4.37	–
E21 [10], 12.3 nM	4.95	–
E21 [10], 37 nM	7.07	–
E21 [10], 111.1 nM	10.1	–
E21 [10], 333.3 nM	12.7	–
E21 [10], 1000 nM	11.4	–
E21 [10], 3000 nM	14.2	–
E28 [1], 4.1 nM	–	0.328
E28 [1], 12.3 nM	–	0.281
E28 [1], 37 nM	–	0.1561
E28 [1], 111.1 nM	–	0.111
E28 [1], 333.3 nM	–	0.00802
E28 [1], 1000 nM	–	0.00283
E28 [1], 3000 nM	–	0.00707
E28 [7], 4.1 nM	1.98	–
E28 [7], 12.3 nM	2.51	–
E28 [7], 37 nM	3.933	–
E28 [7], 111.1 nM	5.55	–
E28 [7], 333.3 nM	10.4	–
E28 [7], 1000 nM	9.23	–
E28 [7], 3000 nM	9.7	–
E34 [2], 4.1 nM	–	0.41
E34 [2], 12.3 nM	–	0.345
E34 [2], 37 nM	–	0.149
E34 [2], 111.1 nM	–	0.0449
E34 [2], 333.3 nM	–	0.0206
E34 [2], 1000 nM	–	0.0187
E34 [2], 3000 nM	–	0.0159
E34 [8], 4.1 nM	2.24	–
E34 [8], 12.3 nM	3.35	–
E34 [8], 37 nM	6.13	–
E34 [8], 111.1 nM	7.1327	–
E34 [8], 333.3 nM	10.8	–
E34 [8], 1000 nM	13	–
E34 [8], 3000 nM	11.9	–
E57 [6], 4.1 nM	–	0.765
E57 [6], 12.3 nM	–	0.402
E57 [6], 37 nM	–	0.056
E57 [6], 111.1 nM	–	0.0464
E57 [6], 333.3 nM	–	0.00359
E57 [6], 1000 nM	–	0.00745
E57 [6], 3000 nM	–	0.00248
E57 [12], 4.1 nM	2.84	–
E57 [12], 12.3 nM	3.23	–
E57 [12], 37 nM	4.87	–
E57 [12], 111.1 nM	5.13	–
E57 [12], 333.3 nM	8.15	–
E57 [12], 1000 nM	9.97	–
E57 [12], 3000 nM	10.7	–
FT3469 [5], 4.1 nM	–	0.518
FT3469 [5], 12.3 nM	–	0.481
FT3469 [5], 37 nM	–	0.364
FT3469 [5], 111.1 nM	–	0.194
FT3469 [5], 333.3 nM	–	0.00806
FT3469 [5], 1000 nM	–	0.0296
FT3469 [5], 3000 nM	–	0.0116
FT3469 [11], 4.1 nM	3.69	–
FT3469 [11], 12.3 nM	3.49	–
FT3469 [11], 37 nM	4.19	–
FT3469 [11], 111.1 nM	5.8	–
FT3469 [11], 333.3 nM	10.7	–
FT3469 [11], 1000 nM	10.1	–
FT3469 [11], 3000 nM	9.44	–
